Data as given in patent publication US20040167111A1, “Pharmaceutical preparations for treating side effects during and/or after GnRHa therapy” (priority 1998, published 2004).

Key:
[1] = test system: prostate of male rats; experiment: Model study in male rats: moisture content of the prostate after 21 days; format: in vivo
Method: (§1) A model study was performed in which both 17β-estradiol and 14α,15α-methylene-1,3,5(10),8-tetraene-3,17α-diol were administered to male rats. The purpose of this study was to compare the extent of the undersirable side effects produced in males (in this case male rats as a model) that are produced by administration of an estrogen, namely 17β-estradiol, and by 14α, 15α-methylene-1,3,5(10),8-tetraene-3,17α-diol, an effective ingredient of the present invention.
(§2) Respective amounts of 17β-estradiol and 14α,15α-methylene-1,3,5(10),8-tetraene-3,17α-diol equivalent to 0.04 mg/kg body weight were administered over a 21 day period to the male rats in corresponding groups of male rats. These amounts were administered daily over the 21 day period to individual male rats subcutaneously. Eight male rats were in each group.
(§3) The moisture content in the prostate and seminal vesicles of each tested male rat was measured at the end of the 21 day test period. The experimental error estimate is shown with the “T” at the top of each bar in the respective bar graphs.

[2] = test system: seminal vesicles of male rats; experiment: Model study in male rats: moisture content of the seminal vesicles after 21 days; format: in vivo
Method: as §1, §2, §3

[3] = test system: female test subjects treated with Decapeptyl-Depot for endometriosis; experiment: Clinical study in women with endometriosis under GnRHa therapy (Decapeptyl-Depot); format: in vivo, human
Method: Here clinical studies in women with endometriosis are reported.
(§4) The effectiveness of injected Decapeptyl-Depot (Ferring Arzneimittel GmbH, Kiel, Germany) in a dose of 3.2 mg of Triptorelin intramuscularly at intervals of four weeks and 1 to 2 mg of 14α,15α-methylene-1,3,5(10),8-tetraene-3,17α-diol daily, given in the form of a vaginal suppository of 1 mg of 14α,15α-methylene-1,3,5(10),8-tetraene-3,17α-diol each, was tested in fourteen female test subjects aged 22 to 38, who were being treated with Decapeptyl-Depot for endometriosis for at least six months.
The treatment with 14α,15α-methylene-1,3,5(10),8-tetraene-3,17α-diol was begun four weeks after the beginning of GnRHa therapy, that is, at the time of the second Decapeptyl injection.
Hot flashes were recorded by the subjects daily on a control form laid out for a 24-hour day, beginning with the first day of Decapeptyl therapy.
The mean number of hot flashes per 24 hours in weeks 3 and 4 of the GnRHa treatment (that is, before the beginning of the 14α,15α-methylene-1,3,5(10),8-tetraene-3,17α-diol therapy) was assumed to be 100%, for the sake of better comparability. The number of hot flashes during additional therapy with 14α,15α-methylene-1,3,5(10),8-tetraene-3,17α-diol was indicated as a percentage of the starting value. For five subjects, a measurement of skin temperature over 24 hours was done, for the sake of objectivity.
At intervals of four weeks, immediately prior to the injection of Decapeptyl-Depot, blood was drawn to determine LI-I, FSH, prolactin, testosterone, DHEAS, SHBG, free testosterone, estradiol, and progesterone. Blood specimens were also taken for determining a simple blood count, SGOT, SGPT, creatinine, Na, K, Ca, albumin, glucose and CA 125.
For long-term treatment, bone density was monitored at intervals of 6 to 12 months. In seven subjects, trials of withdrawal from 14α,15α-methylene-1,3,5(10),8-tetraene-3,17α-diol over 4 to 8 weeks each were done.

[4] = test system: test subjects with fibroid tumors of the uterus; experiment: Clinical study in women with fibroid tumors of the uterus under GnRHa therapy; format: in vivo, human
Method: as §4
Test subjects aged 22 to 46 with fibroid tumors of the uterus were given the same doses.

[5] = test system: males with prostate-Ca under GnRHa therapy; experiment: Observation in males with prostate-Ca under GnRHa therapy; format: in vivo, human
[6] = test system: female test subjects treated with Decapeptyl-Depot for endometriosis; experiment: Clinical study in women with endometriosis under GnRHa therapy (Decapeptyl-Depot); format: in vivo, human; remark: listed apart in the source

C[C@]12CCC3=C(CCc4cc(O)ccc43)[C@@]13C[C@H]3C[C@H]2O [14α,15α-methylene-1,3,5(10),8-tetraene-3,17α-diol]
proliferation effect in the prostates (increase in the moisture content) ([1]; male rats, 0.04 mg/kg body weight subcutaneously daily over 21 days, FIG. 1): scarcely any proliferation effect
undesirable estrogen side effects ([1]; male rats, prostate and seminal vesicles, 0.04 mg/kg s.c. daily 21 days): no undesirable estrogen side effects
proliferation effect on the seminal vesicles (increase in the moisture content) ([2]; male rats, 0.04 mg/kg body weight subcutaneously daily over 21 days, FIG. 2): no profileration effect
bleeding ([3]; 1 to 2 mg daily as vaginal suppository in addition to Decapeptyl-Depot): No bleeding occurred
values for LH, FSH, prolactin, testosterone, DHEAS, SHBG, estradiol, and progesterone ([3]; 1 to 2 mg daily vaginal suppository in addition to Decapeptyl-Depot): remained low and unchanged
Ca 125 values ([3]; add-on to Decapeptyl-Depot): did not rise
body weight ([3]; add-on to Decapeptyl-Depot): no change
intracyclic bleeding ([3]; add-on to Decapeptyl-Depot): No intracyclic bleeding occurred
liver values, blood count or electrolytes ([3]; add-on to Decapeptyl-Depot): No changes
endometriosis-specific complaints ([3]; during the treatment): did not recur
bone density ([3]; over one year, four subjects monitored): did not change significantly
blood pressure ([3]; subjects with borderline RR (n=4, RR around 140/80)): around 110/70
hot flashes in withdrawal trial ([3]; withdrawal over 4 to 8 weeks, seven subjects): increase in hot flashes, within three weeks back to the starting values
course of the decrease in uterine volume versus subjects not receiving the compound ([4]; Decapeptyl-Depot plus add-on): identical
influence on the effect of the GnRHa therapy on the lower organs ([4]; supplementary treatment): did not influence
uterus size ([4]; within three months, Decapeptyl-Depot plus add-on): 40±10 % of the starting value
hot flashes tripped by GnRHa therapy [5]: same result
complaints of undesirable estrogen-related side effects ([6]; all subjects): complaint-free
hot flashes tripped by GnRHa therapy ([6]; treated females, endometriosis or fibroid tumors of the uterus): effectively eliminated

C[C@]12CC[C@@H]3c4ccc(O)cc4CC[C@H]3[C@@H]1CC[C@@H]2O [estradiol, 17β-estradiol, reference compound]
proliferation effect in the prostates (increase in the moisture content) ([1]; rat, in vivo, sc, 0.04 mg/kg): comparatively large proliferation effect
undesirable estrogen side effects ([1]; rat, in vivo, sc, 0.04 mg/kg): estrogen side effects of course result
proliferation effect on the seminal vesicles (increase in the moisture content) ([2]; rat, in vivo, sc, 0.04 mg/kg): comparatively large proliferation effect
